Measured values: ChEMBL document CHEMBL5634085, “Design, synthesis and antitrypanosomatid activity of 2-nitroimidazole-3,5-disubstituted isoxazole compounds based on benznidazole” (Eur J Med Chem, 2023)
Activity calls are given as the source filed them. The calls are words filed in the database; no cut-off is given here.

Columns and labels:
[1] = tested on: Trypanosoma cruzi; assay: Effect on infection-mediated heart weight in Trypanosoma cruzi Y strain trypomastigotes infected in BALB/c mouse model at 25 mg/kg/day, po administered for consecutive 10 days; type: functional, organism-based; conditions: time 10.0 day
[2] = Cytotoxicity against monkey LLC-MK2 cells incubated for 72 hrs by MTT assay; type: toxicity, cell-based, Macaca mulatta; conditions: rhesus monkey
[3] = tested on: Trypanosoma cruzi; assay: (§1) Antitrypanosomal activity against Trypanosoma cruzi Tulahuen lacZ expressing beta-galactosidase amastigotes infected in monkey LLC-MK2 cells assessed as inhibition of amastigotes pre-infected in cells for 48 hrs followed by compound addition and measured after 72 hrs by CPRG reagent based absorbance analysis; type: functional, organism-based
[4] = Selectivity index, ratio of CC50 for monkey LLC-MK2 cells to IC50 for Trypanosoma cruzi Tulahuen lacZ expressing beta-galactosidase amastigotes infected monkey LLC-MK2 cells; type: toxicity; conditions: read-out: Ratio CC50/IC50
[5] = tested on: Trypanosoma cruzi; assay: Binding affinity to Trypanosoma cruzi type I nitro reductase at 25 uM incubated for 5 mins in the presence of NADH by microplate reader analysis
[6] = tested on: Trypanosoma cruzi; assay: Binding affinity to Trypanosoma cruzi type I nitro reductase at 10 uM incubated for 5 mins in the presence of NADH by microplate reader analysis
[7] = tested on: Trypanosoma cruzi; assay: Antitrypanosomal activity against Trypanosoma cruzi Y trypomastigotes infected in BALB/c mouse model assessed as reduction of parasitemia level at 25 mg/kg/day, po administered via gavage for consecutive 10 days and measured on day 5,7,9 and 11; type: functional, organism-based; conditions: time 11.0 day
[8] = tested on: Trypanosoma cruzi; assay: (§2) Antitrypanosomal activity against Trypanosoma cruzi Y trypomastigotes infected in BALB/c mouse model assessed as reduction of parasite load in cardiac tissue by measuring reduction in DNA copy number at 25 to 100 mg/kg/day, po administered via gavage observed on 11 day of post infection by qPCR analysis relative to control; type: functional; parameters: scale not given: the % may be the effect or the level left; conditions: dose 25-100 mg/kg/day
[9] = tested on: Trypanosoma cruzi; assay: Effect on infection-mediated heart weight in Trypanosoma cruzi Y strain trypomastigotes infected in BALB/c mouse model at 100 mg/kg/day, po administered for consecutive 10 days; type: functional, organism-based; conditions: time 10.0 day
[10] = tested on: Trypanosoma cruzi; assay: Antitrypanosomal activity against Trypanosoma cruzi Y strain trypomastigotes infection induced hepatosplenomegaly BALB/c male mouse model assessed as change in infection-mediated liver weight at 25 mg/kg/day, po administrated for consecutive 10 days; type: functional, organism-based; conditions: time 10.0 day
[11] = tested on: Trypanosoma cruzi; assay: Antitrypanosomal activity against Trypanosoma cruzi Y strain trypomastigotes infection induced hepatosplenomegaly BALB/c male mouse model assessed as change in infection-mediated spleen weight at 25 mg/kg/day, po administrated for consecutive 10 days; type: functional, organism-based; conditions: time 10.0 day
[12] = Toxicity in BALB/c mouse infected with Trypanosoma cruzi Y trypomastigotes assessed as body weight gain at 25 mg/kg/day, po administrated via gavage for consecutive 10 days; type: organism-based; conditions: in vivo, 240 h, time 10 day
[13] = Toxicity in BALB/c mouse infected with Trypanosoma cruzi Y trypomastigotes assessed as body weight gain at 100 mg/kg/day, po administrated via gavage for consecutive 10 days; type: organism-based; conditions: in vivo, 240 h, time 10 day
[14] = Toxicity in BALB/c mouse infected with Trypanosoma cruzi Y trypomastigotes assessed as animal survival at 25 mg/kg/day, po administrated via gavage for consecutive 10 days relative to control; type: organism-based; conditions: in vivo, time 10 day
[15] = Toxicity in BALB/c mouse infected with Trypanosoma cruzi Y trypomastigotes assessed as animal survival at 100 mg/kg/day, po administrated via gavage for consecutive 10 days relative to control; type: organism-based; conditions: in vivo, time 10 day
[16] = Toxicity in BALB/c mouse infected with Trypanosoma cruzi Y trypomastigotes assessed as body weight loss at 25 mg/kg/day, po administrated via gavage for consecutive 10 days; type: organism-based; conditions: in vivo, 240 h, time 10 day
[17] = tested on: Leishmania amazonensis; assay: (§3) Antileishmanial activity against Leishmania amazonensis IFLA/BR/1967/PH8 amastigotes infected in mouse peritoneal macrophage assessed as inhibition of parasite growth pre-infected in cells for 4 hrs followed by compound addition and measured after 24 hrs by Giemsa staining based analysis; type: functional, organism-based; conditions: IFLA/BR/1967/PH8, Peritoneal macrophage
[18] = Selectivity index, ratio of CC50 for cytotoxicity against monkey LLC-MK2 cells to IC50 for antileishmanial activity against Leishmania amazonensis IFLA/BR/1967/PH8 amastigotes infected in mouse peritoneal macrophage; type: toxicity, cell-based; conditions: read-out: Ratio CC50/IC50
[19] = tested on: Trypanosoma cruzi; assay: as §1, with “Potency index, ratio of benznidazole IC50 to test compound IC50 for antitrypanosomal” for “Antitrypanosomal”; type: functional
[20] = Toxicity in BALB/c mouse infected with Trypanosoma cruzi Y trypomastigotes assessed as animal survival at 25 mg/kg/day, po administrated via gavage for consecutive 10 days; type: organism-based; conditions: in vivo, 240 h, time 10 day
[21] = tested on: Leishmania amazonensis; assay: as §3, with “Potency index, ratio of pentamidine IC50 to test compound IC50 for antileishmanial” for “Antileishmanial”; type: functional, Peritoneal macrophage cell
[22] = tested on: Trypanosoma cruzi; assay: Antitrypanosomal activity against Trypanosoma cruzi Y trypomastigotes infected in BALB/c mouse model assessed as reduction of parasitemia level at 25 mg/kg/day, po administered via gavage observed on 7 day of post infection relative to control; type: functional; parameters: scale not given: the % may be the effect or the level left
[23] = tested on: Trypanosoma cruzi; assay: as §2, with “25” for “25 to 100”; type: functional; parameters: scale not given: the % may be the effect or the level left
[24] = tested on: Trypanosoma cruzi; assay: Antitrypanosomal activity against Trypanosoma cruzi Y trypomastigotes infected in BALB/c mouse model assessed as reduction of parasitemia level at 25 mg/kg/day, po administered via gavage administrated for consecutive 10 days and measured on day 11; type: functional, organism-based; conditions: time 11.0 day

| Compound | Activity [1] | CC50 at 72 h [2] | IC50 [3] | selectivity ratio [4] | Kobs [5] | Kobs [6] | Activity [7] | Activity [10] | Activity [11] | Activity [12] | survival at 240 h [14] | IC50 [17] | selectivity ratio [18] | Ratio IC50 [19] | Ratio IC50 [21] | other results |
| --- | --- | --- | --- | --- | --- | --- | --- | --- | --- | --- | --- | --- | --- | --- | --- | --- |
| O=C(Cn1ccnc1[N+](=O)[O-])NCc1ccccc1 [BENZNIDAZOLE] | inactive | > 50 µM | 3.8 µM | > 9.3 | 0.3 s⁻¹ | 0.13 s⁻¹ | inactive | Active | Active | Non-Toxic | 100% | – | – | – | – | Activity [8]: 99%; Activity [9]: inactive; Activity [13]: Non-Toxic; survival at 240 h [15]: 100% |
| COc1ccc(-c2cc(Cn3ccnc3[N+](=O)[O-])on2)cc1OC | inactive | > 50 µM | 0.2 µM | > 200 | 0.82 s⁻¹ | 0.57 s⁻¹ | inactive | Active | Active | – | – | 19.6 µM | > 2.5 | 15 | – | Activity [16]: Toxic; Activity [20]: Toxic |
| Cc1ccc(-c2cc(Cn3ccnc3[N+](=O)[O-])on2)cc1[N+](=O)[O-] | – | > 50 µM | 33.6 µM | > 1.5 | – | – | – | – | – | – | – | 3.3 µM | > 15.3 | – | 5.1 | – |
| CCN1CCN(c2ccc(-c3cc(Cn4ccnc4[N+](=O)[O-])on3)cc2)CC1 | inactive | > 50 µM | 1.6 µM | > 30.8 | 0.48 s⁻¹ | 0.23 s⁻¹ | – | Active | Active | Non-Toxic | 100% | 5.5 µM | > 9 | – | – | Activity [22]: 77%; Activity [23]: 73%; Activity [24]: inactive |
| O=[N+]([O-])c1ccc(-c2cc(Cn3ccnc3[N+](=O)[O-])on2)o1 | – | > 50 µM | 0.9 µM | > 51 | 1.27 s⁻¹ | 0.75 s⁻¹ | – | – | – | – | – | – | – | 5.4 | – | – |
| COc1cc(OC)c(Cl)c(-c2cc(Cn3ccnc3[N+](=O)[O-])on2)c1 | – | > 50 µM | 12 µM | > 4.2 | – | – | – | – | – | – | – | 2.2 µM | > 22.6 | – | 7.6 | – |
| O=[N+]([O-])c1nccn1Cc1cc(-c2ccc(O)cc2)no1 | inactive | > 50 µM | 0.6 µM | > 87.7 | 0.68 s⁻¹ | 0.47 s⁻¹ | inactive | Active | Active | Non-Toxic | 100% | 18.7 µM | > 2.7 | 12 | – | – |
| O=[N+]([O-])c1nccn1Cc1cc(-c2ccc(N3CCN(CCO)CC3)cc2)no1 | – | > 50 µM | 7.5 µM | > 6.7 | – | – | – | – | – | – | – | 5.6 µM | > 8.8 | – | 2.9 | – |
| CN1CCN(c2ccc(-c3cc(Cn4ccnc4[N+](=O)[O-])on3)cc2)CC1 | inactive | > 50 µM | 0.4 µM | > 125 | 0.38 s⁻¹ | 0.21 s⁻¹ | inactive | Active | Active | Non-Toxic | 100% | 15.6 µM | > 3.2 | 10 | – | – |
